From patent US11273152B2, “TRPV2 antagonists” (Instituto de Medicina Molecular João Lobo Antunes, priority 2017, dated 2022)
Entries after “also recorded” stand apart in the source; their conditions may differ.

What was measured:
TRPM4 = TRPM4 (Homo sapiens, UniProt Q8TD43); test: Fluorescence cell-based assay, TRPM4; conditions: membrane potential dye, duplicate
Procedure: The assays were performed at SB Discovery (Glasgow, UK) on a fee-for-service basis. Human TRP cells were trypsinised, counted and seeded in black, clear-bottomed 96 well plates at a density of 50,000 cells per well in 100 μL volume and incubated overnight. Next day, the cells were loaded with calcium 5 dye or membrane potential dye. TRPV1-5, TRPA1, TRPM2, TRPM3, and TRPM8 were tested using the calcium 5 dye. TRPC1, TRPC3-7, and TRPM4-5 were tested using the membrane potential dye. Both dye solutions were made up in HEPES buffered Hank's balanced salt solution (HBSS). Dye solution (90 μL) was added to the wells and incubated at 37° C. for 1 hour. Test compounds and standard inhibitors (10 μL) were then added to the wells and incubated at room temperature for 10 minutes. The plates were then placed in the flexstation and fluorescence monitored every 1.52 seconds. After 20 seconds agonist was added and the fluorescence monitored for 2 minutes at 485 nm/525 nm and 530 nm/565 nm, Ex/Em, for the calcium 5 dye and the membrane potential dye respectively. Controls-TRPV1: capsazepine; TRPV2: tranilast; TRPV3: ruthenium red; TRPV4: ruthenium red; TRPV5: Gd^3+; TRPA1, ruthenium red; TRPC1: Gd^3+; TRPC3: Pyr3; TRPC4: ML 204; TRPC5: ML 204; TRPC6: ML 204; TRPC7: SKF 96365; TRPM2: 2-APB; TRPM3: Mef acid; TRPM4: clotrimazole; TRPM5: TPPO; TRPM8: 2-APB. […]

[1] = Dynamic light scattering, colloidal aggregation; assay type: physicochemical; conditions: water, 25° C.
Procedure: Dynamic light scattering (Zetasizer Nano S, Malvern, UK) was used to determine compound colloidal aggregation. The particle sizes were measured at 25° C. Water solubility was measured as described elsewhere with successive measurements within 60 minutes.^35 A 100 mM stock solution of piperlongumine was prepared in DMSO, following dilution to deionized water to obtain an analyte solution of 100 μM (0.1% DMSO). Colloidal aggregation was measured through sequential dilutions.

U251 cells = test: Viability of U251 cells transiently over-expressing hTRPV2; assay type: cell-based, human; conditions: 5 μM PL, 24 hours, p=0.0002, n=9, listed as PL
Procedure: (§1) 50,000 U251 cells were seeded in each well of a 24 well plate. The next day cells were transfected with hTRPV2-RFP plasmid. After incubating for 48 hours the media was changed and PL was added at 5 and 10 μM. 24 hours later cell viability was assessed using CellTitre-Blue (Promega). Transfection efficiency was assessed using flow cytometry.
(§2) Cells were harvested from plates by washing with media (HEK293) or TrypLE express (Gibco). The media was removed after centrifugation and the cells were washed twice with binding buffer before being incubated for 30 minutes at room temperature with Annexin V-APC (eBiosciences, 1:100) and 7-AAD (Pharmigen, 1:50). Samples were diluted with binding buffer and analyzed by flow cytometry using BD LSRFortessa X-20 with FACS Diva software. Samples with single stains were used as controls.

HEK293 cells = test: Viability of HEK cells transiently transfected with TRPV2; assay type: cell-based, human
Procedure: as §1, with “75,000 HEK293” for “50,000 U251”, “plasmid (kindly gifted by Prof. Itaru Kojima, Gunma University, Japan).” for “plasmid.”, “24” for “48”, “(Promega) or Annexin V, 7-AAD staining.” for “(Promega).”
as §2

TRPV2 = target: T1, TRPV2 (Homo sapiens, UniProt Q9Y5S1); test: Co-incubation experiments with cannabidiol (mode of binding); assay type: cell-based
T1 sequence (Q9Y5S1 1-764): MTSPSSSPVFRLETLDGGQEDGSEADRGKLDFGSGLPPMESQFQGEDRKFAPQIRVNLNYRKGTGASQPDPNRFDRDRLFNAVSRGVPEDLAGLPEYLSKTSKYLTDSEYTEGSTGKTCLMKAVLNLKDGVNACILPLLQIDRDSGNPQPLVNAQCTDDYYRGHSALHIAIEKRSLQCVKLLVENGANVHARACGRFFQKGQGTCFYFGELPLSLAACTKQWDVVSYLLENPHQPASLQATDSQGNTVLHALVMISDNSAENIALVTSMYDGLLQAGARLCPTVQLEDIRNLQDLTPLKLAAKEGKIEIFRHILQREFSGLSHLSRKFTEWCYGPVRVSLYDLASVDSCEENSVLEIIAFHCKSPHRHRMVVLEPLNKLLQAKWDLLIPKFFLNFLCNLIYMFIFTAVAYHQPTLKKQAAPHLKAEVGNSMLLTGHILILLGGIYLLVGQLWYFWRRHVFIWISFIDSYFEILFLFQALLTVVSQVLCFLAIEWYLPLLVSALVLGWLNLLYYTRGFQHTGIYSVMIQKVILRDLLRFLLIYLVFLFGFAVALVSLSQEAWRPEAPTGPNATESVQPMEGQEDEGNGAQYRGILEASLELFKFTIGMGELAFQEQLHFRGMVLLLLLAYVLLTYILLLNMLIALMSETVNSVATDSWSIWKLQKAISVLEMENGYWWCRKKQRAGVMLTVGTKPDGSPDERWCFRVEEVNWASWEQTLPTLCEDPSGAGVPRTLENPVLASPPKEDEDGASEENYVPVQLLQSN

TRPM4, sequence (Q8TD43 whole entry): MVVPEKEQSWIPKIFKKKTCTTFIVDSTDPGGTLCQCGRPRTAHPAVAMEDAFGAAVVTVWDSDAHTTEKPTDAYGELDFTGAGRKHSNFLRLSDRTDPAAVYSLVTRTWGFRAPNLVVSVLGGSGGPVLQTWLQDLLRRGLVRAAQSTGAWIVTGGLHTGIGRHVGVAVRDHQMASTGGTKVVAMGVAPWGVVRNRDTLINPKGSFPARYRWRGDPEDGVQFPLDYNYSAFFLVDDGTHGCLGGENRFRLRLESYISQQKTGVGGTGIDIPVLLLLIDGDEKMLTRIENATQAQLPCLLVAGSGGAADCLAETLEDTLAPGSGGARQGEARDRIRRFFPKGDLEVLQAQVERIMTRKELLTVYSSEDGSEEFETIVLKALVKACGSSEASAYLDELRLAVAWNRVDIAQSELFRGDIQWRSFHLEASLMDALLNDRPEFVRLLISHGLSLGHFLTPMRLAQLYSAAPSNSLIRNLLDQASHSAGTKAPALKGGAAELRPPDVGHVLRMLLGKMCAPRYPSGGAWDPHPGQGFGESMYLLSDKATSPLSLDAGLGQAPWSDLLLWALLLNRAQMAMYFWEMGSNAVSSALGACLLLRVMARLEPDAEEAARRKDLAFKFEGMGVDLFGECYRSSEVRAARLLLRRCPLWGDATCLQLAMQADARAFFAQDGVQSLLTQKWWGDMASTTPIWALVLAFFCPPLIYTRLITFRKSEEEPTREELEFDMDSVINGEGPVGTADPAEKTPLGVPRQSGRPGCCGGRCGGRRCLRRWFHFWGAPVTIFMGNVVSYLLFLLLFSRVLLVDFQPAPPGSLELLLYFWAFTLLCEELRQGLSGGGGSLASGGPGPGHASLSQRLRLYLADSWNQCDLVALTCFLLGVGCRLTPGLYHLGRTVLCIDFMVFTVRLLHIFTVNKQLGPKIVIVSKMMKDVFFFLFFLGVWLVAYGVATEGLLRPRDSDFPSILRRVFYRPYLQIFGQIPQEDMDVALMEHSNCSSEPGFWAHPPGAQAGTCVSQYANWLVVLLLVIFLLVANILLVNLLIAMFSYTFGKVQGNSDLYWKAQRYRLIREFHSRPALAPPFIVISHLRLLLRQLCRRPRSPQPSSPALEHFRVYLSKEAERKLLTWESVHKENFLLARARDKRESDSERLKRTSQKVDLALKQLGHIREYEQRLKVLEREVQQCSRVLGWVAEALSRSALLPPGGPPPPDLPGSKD

## COc1cc(/C=C/C(=O)N2CCC=CC2=O)cc(OC)c1OC [Compound 1, piperlongumine]
TRPM4
  IC50: > 100 µM
[1]
  Colloidal aggregation (dynamic light scattering): absence of colloidal aggregate-induced inhibition
U251 cells
  Viability of hTRPV2-transfected cells vs non-transfected controls: reduced viability compared to the non-transfected controls; also recorded: increases PL toxicity
HEK293 cells
  Viability of TRPV2-transfected cells vs non-transfected controls: identical result
TRPV2; EC50 curves of cannabidiol with increasing concentrations of 1
  Mode of antagonism: non-competitive (allosteric) antagonism
TRPV2; Michaelis-Menten analysis
  Concentration of 1 above which apparent vmax of cannabidiol is reduced: higher than 5 pM
